The values that follow come from paper PMC2874393, “Comparison of zwitterionic N-alkylaminomethanesulfonic acids to related compounds in the Good buffer series” (Beilstein Journal of Organic Chemistry, 2010).

Usually pKa stands for the negative logarithm of the acid dissociation constant.

Like-named read-outs stand apart in the source and are kept apart here. Marks after values point to notes of the source that are not given here.

For series [1] the following is noted: cited from earlier work; for pKa (ethyl analog) / pKa (propyl analog): ref [1],[5],[7]; for pKa: in water, ref [4].
Series [2] is described as follows: aqueous solubility (observation). Format: physicochemical. As to conditions: at low pH / pH ≤ pKa. From the text: All of the compounds except 2 show evidence of a systematic decrease in pKa as the number of carbons between the amine and sulfonic acid functional groups decreases.
The nature of series [3]: pKa of ammonium ion proton dissociation by aqueous solution titrimetry. Type of series: physicochemical. On the procedure:
We then performed titrations to determine the pKa values of proton dissociation from the ammonium ion (1a and equivalent). The pKa values determined for these compounds, along with those of the analogous aminoethanesulfonate and aminopropanesulfonate buffer pKa values for comparison is presented in Table 1.
Acid dissociation constants for the ammonium ions were determined by aqueous solution titrimetry (min. 5 repetitions from low to high, then high to low pH) using standardized NaOH and HCl solutions.

In another series the test system is E. coli strain HB101. In words: culture growth with buffer compounds, optical density at 600 nm. Type of series: cell-based. The note with it: for Final OD600: E. coli HB101, pH 7.2, 37 °C, 18 h, 3 trials; for culture growth support: all concentrations tested (10, 20, 50 mM); for toxicity or culture growth inhibition: higher concentrations of buffer. How it is done: In order to assess the potential utility of these compounds as biological buffers, we conducted an initial experiment with different concentrations of the new compounds with E. coli strain HB101 at pH 7.2 and 37 °C for 18 h. Culture growth was estimated by optical density measurement at 600 nm, and the results are summarized in Table 2 (in which each value is the result of 3 separate trials, with an overall standard error for all final measurements of 0.025).

Setting [4] is: 2nd (ammonium) dissociation constant value.
The mark [5] stands for this setting: ammonium ion, aqueous titration.

On to `O=S(=O)(O)CCNC1CCCCC1` [CHES, 2-(cyclohexylamino)ethanesulfonic acid], for which the “pKa (ethyl analog)” value in series [1] is on record as 9.3.
On to `O=S(=O)(O)CCCN1CCN(CCO)CC1` [EPPS, 4-(2-hydroxyethyl)-1-piperazinepropanesulfonic acid], for which the “pKa (propyl analog)” value in series [1] is 8.0.
With `O=S(=O)(O)CCN1CCN(CCO)CC1` [HEPES], the “pKa (ethyl analog)” value in series [1] is recorded as 7.5.
For the compound `O=S(=O)(O)CCN1CCN(CCS(=O)(=O)O)CC1` [PIPES, reference compound], in series [2], the aqueous solubility result is listed as “limited aqueous solubility”. Moreover, the “pKa (ethyl analog)” value in series [1] (setting [4]) is on record as 6.8^b.
For the compound `O=S(=O)(O)CCCN1CCN(CCCS(=O)(=O)O)CC1` [PIPPS, piperazine-N,N′-bis(3-propanesulfonic acid], in series [1] (setting [4]), the “pKa (propyl analog)” value was 8.0^b.
As to `NCS(=O)(=O)O` [aminomethanesulfonic acid], in series [1], the pKa is reported as 5.75.
As for `O=S(=O)(O)CN1CCOCC1` [compound 1, N-Morpholinomethanesulfonic acid], the pKa worked out at 3.8 in series [3] (0.3 M solution at 20 °C) and 3.9 in series [3] (setting [5]). Further, the “Final OD600” value in the series on E. coli strain HB101 (10 mM buffer) is listed as 1.16; in the series with E. coli strain HB101 (20 mM buffer) it was 1.22; with E. coli strain HB101 (50 mM buffer), 1.18. Moreover, in the series with E. coli strain HB101, the culture growth support entry is reported as “supported culture growth at all concentrations tested”.
On to `O=S(=O)(O)CN1CCN(CCO)CC1` [compound 2, N-(2-hydroxyethyl)piperazine-N′-methanesulfonic acid], for which the pKa in series [3] (0.25M solution at 20 °C) amounted to 7.4; in series [3] (setting [5]) it was 7.9. Moreover, the “Final OD600” value with E. coli strain HB101 (10 mM buffer) came out at 1.16; in the series with E. coli strain HB101 (20 mM buffer), 1.08; with E. coli strain HB101 (50 mM buffer), 0.66. Besides, the culture growth support entry in the series on E. coli strain HB101 is on record as “supported culture growth at all concentrations tested”. Also, the “toxicity or culture growth inhibition” value in the series with E. coli strain HB101 is listed as “possible toxicity or other culture growth inhibition”.
For the compound `O=S(=O)(O)CN1CCN(CS(=O)(=O)O)CC1` [compound 3, Piperazine-N,N′-bis(methanesulfonic acid)], the aqueous solubility result in series [2] was “does not demonstrate the limited aqueous solubility”. For the same compound, the pKa came out at 4.8 in series [3] (0.3 M solution at 20 °C) and 4.9 in series [3] (2nd (ammonium) dissociation constant value, aqueous titration). In addition, the “Final OD600” value with E. coli strain HB101 (10 mM buffer) worked out at 1.23; with E. coli strain HB101 (20 mM buffer), 1.21; with E. coli strain HB101 (50 mM buffer) it was 1.08. Also, the culture growth support entry in the series with E. coli strain HB101 is on record as “supported culture growth at all concentrations tested”. Moreover, the “toxicity or culture growth inhibition” value in the series on E. coli strain HB101 is listed as “possible toxicity or other culture growth inhibition”.
As for `O=S(=O)(O)CNC1CCCCC1` [compound 4, Cyclohexylaminomethanesulfonic acid], the aqueous solubility result in series [2] is recorded as “limited solubility in aqueous solution”. Moreover, the pKa in series [3] (0.3 M solution at 20 °C) is 7.8; in series [3] (setting [5]), roughly 7.
As for `NS(=O)(=O)O` [sulfamic acid], the pKa in series [1] is 1.01.
